Assay results as given in article PMC11487561 (ACS Chemical Neuroscience, 2024).

Key:
human M3 = human M3 (Homo sapiens, UniProt P20309); assay: Calcium mobilization assay, muscarinic selectivity; type: cell-based
human M5 = human M5 (Homo sapiens, UniProt P08912); assay: Calcium mobilization assay, muscarinic selectivity; type: cell-based
[1] = Binding in plasma from rat (equilibrium dialysis); type: in vitro ADME; conditions: fraction unbound, equilibrium dialysis, read-out: rat fu,plasma
Method: Binding in plasma from rat and human.
Determination of compounds’ fraction unbound (f u) in plasma from rat and human was conducted in vitro via equilibrium dialysis using HTDialysis membrane plates. Dialysis membranes (four paired strips per HTD assay) were hydrated as described by the manufacturer and inserted into the HTD plate, which was assembled and prepared for sample addition by the dispensing of blank buffer (DPBS, 100 µL/well) into the ‘top half’ of each membrane-split well. Each compound was diluted into plasma from each species (5 µM final concentration), which was aliquoted in triplicate to the ‘bottom half’ of the prepared HTD plate wells. The HTD plate was sealed and incubated for 6 hours at 37 °C. Following incubation, each well (both top and bottom halves) were transferred (20 µL) to the corresponding wells of a 96-shallow-well (V-bottom) plate. The daughter plates were then matrix-matched (buffer side wells received equal volume of plasma, and plasma side wells received equal volume of buffer), and extraction solution (120 µL; acetonitrile containing 50 nM carbamazepine as IS) was added to all wells of both daughter plates to precipitate protein and extract test article. The plates were then sealed and centrifuged (3500 rcf) for 10 minutes at ambient temperature. Supernatant (60 µL) from each well of the daughter plates was then transferred to the corresponding wells of new daughter plates (96-shallow-well, V bottom) containing water (Milli-Q, 60 µL/well), and the plates were sealed in preparation for LC-MS/MS analysis (see below). fu was calculated as (analyte to IS MS peak area ratio from Trans-buffer side) / (analyte to IS MS peak area ratio from Cis-plasma side). Mean values for each species were calculated from 3 replicates.

CYP 1A2 = target: T1, CYP 1A2 (Homo sapiens, UniProt P05177); assay: P450 inhibition in pooled human liver microsomes; type: in vitro ADME; conditions: pooled HLM, NADPH, CYP-specific probe substrates
T1 construct: from tissue; host or cells: pooled human liver microsomes (according to the earlier reading)

CYP 2C9 = target: T2, CYP 2C9 (Homo sapiens, UniProt P11712); assay: P450 inhibition in pooled human liver microsomes; type: in vitro ADME; conditions: pooled HLM, NADPH, CYP-specific probe substrates
T2 construct: from tissue; host or cells: pooled human liver microsomes (according to the earlier reading)

CYP 3A4 = target: T3, CYP 3A4 (Homo sapiens, UniProt P08684); assay: P450 inhibition in pooled human liver microsomes; type: in vitro ADME; conditions: pooled HLM, NADPH, CYP-specific probe substrates
T3 construct: from tissue; host or cells: pooled human liver microsomes (according to the earlier reading)

4 strains ± S9 = assay: Mini Ames test; type: cell-based
Adenosine A1 = target: T4, Adenosine A1 (Homo sapiens, UniProt P30542); assay: Lead Profiling Screen – Eurofins Panlabs; type: binding; conditions: read-out: % inh at 10 μM
T4 construct: Eurofins Panlabs

Adenosine A3 = target: T5, Adenosine A3 (Homo sapiens, UniProt P0DMS8); assay: Lead Profiling Screen – Eurofins Panlabs; type: binding; conditions: read-out: % inh at 10 μM
T5 construct: Eurofins Panlabs

Adrenergic α1A = target: T6, Adrenergic α1A (Rattus norvegicus, UniProt P43140); assay: Lead Profiling Screen – Eurofins Panlabs; type: binding; conditions: read-out: % inh at 10 μM
T6 construct: Eurofins Panlabs

Adrenergic β1 = target: T7, Adrenergic β1 (Homo sapiens, UniProt P08588); assay: Lead Profiling Screen – Eurofins Panlabs; type: binding; conditions: read-out: % inh at 10 μM
T7 construct: Eurofins Panlabs (contract screen)

Bradykinin B2 = target: T8, Bradykinin B2 (Homo sapiens, UniProt P30411); assay: Lead Profiling Screen – Eurofins Panlabs; type: binding; conditions: read-out: % inh at 10 μM
T8 construct: Eurofins Panlabs (contract screen)

[2] = tested on: Calcium Channel L-Type, Dihydropyridine; assay: Lead Profiling Screen – Eurofins Panlabs; type: binding, rat
Dopamine D2S = target: T9, Dopamine D2S (Homo sapiens, UniProt P14416); assay: Lead Profiling Screen – Eurofins Panlabs; type: binding; conditions: read-out: % inh at 10 μM
T9 construct: Eurofins Panlabs (contract screen)

Endothelin ETB = target: T10, Endothelin ETB (Homo sapiens, UniProt P24530); assay: Lead Profiling Screen – Eurofins Panlabs; type: binding; conditions: read-out: % inh at 10 μM
T10 construct: Eurofins Panlabs (contract screen)

GABAB1A = target: T11, GABAB1A (Homo sapiens, UniProt Q9UBS5); assay: Lead Profiling Screen – Eurofins Panlabs; type: binding; conditions: read-out: % inh at 10 μM
T11 construct: Eurofins Panlabs (contract screen)

Histamine H3 = Histamine H3 (Homo sapiens, UniProt Q9Y5N1); assay: Lead Profiling Screen – Eurofins Panlabs; type: binding; conditions: read-out: % inh at 10 μM
Neuropeptide Y Y1 = Neuropeptide Y Y1 (Homo sapiens, UniProt P25929); assay: Lead Profiling Screen – Eurofins Panlabs; type: binding; conditions: read-out: % inh at 10 μM
Phorbol Ester = assay: Lead Profiling Screen – Eurofins Panlabs; type: binding, mouse
Potassium Channel [KATP] = Potassium Channel [KATP] (Cricetus cricetus, UniProt Q09427); assay: Lead Profiling Screen – Eurofins Panlabs; type: binding, hamster; conditions: read-out: % inh at 10 μM
Purinergic P2X = assay: Lead Profiling Screen – Eurofins Panlabs; type: binding, rabbit
Purinergic P2Y = assay: Lead Profiling Screen – Eurofins Panlabs; type: binding, rat
Sodium Channel, Site 2 = assay: Lead Profiling Screen – Eurofins Panlabs; type: binding, rat
Tachykinin NK1 = Tachykinin NK1 (Homo sapiens, UniProt P25103); assay: Lead Profiling Screen – Eurofins Panlabs; type: binding; conditions: read-out: % inh at 10 μM
Thyroid Hormone = assay: Lead Profiling Screen – Eurofins Panlabs; type: binding, rat
[3] = target: Transporter, Dopamine (DAT) (Homo sapiens, UniProt Q01959); assay: Lead Profiling Screen – Eurofins Panlabs; type: binding; conditions: read-out: % inh at 10 μM

Chain of human M5 (P08912 whole entry): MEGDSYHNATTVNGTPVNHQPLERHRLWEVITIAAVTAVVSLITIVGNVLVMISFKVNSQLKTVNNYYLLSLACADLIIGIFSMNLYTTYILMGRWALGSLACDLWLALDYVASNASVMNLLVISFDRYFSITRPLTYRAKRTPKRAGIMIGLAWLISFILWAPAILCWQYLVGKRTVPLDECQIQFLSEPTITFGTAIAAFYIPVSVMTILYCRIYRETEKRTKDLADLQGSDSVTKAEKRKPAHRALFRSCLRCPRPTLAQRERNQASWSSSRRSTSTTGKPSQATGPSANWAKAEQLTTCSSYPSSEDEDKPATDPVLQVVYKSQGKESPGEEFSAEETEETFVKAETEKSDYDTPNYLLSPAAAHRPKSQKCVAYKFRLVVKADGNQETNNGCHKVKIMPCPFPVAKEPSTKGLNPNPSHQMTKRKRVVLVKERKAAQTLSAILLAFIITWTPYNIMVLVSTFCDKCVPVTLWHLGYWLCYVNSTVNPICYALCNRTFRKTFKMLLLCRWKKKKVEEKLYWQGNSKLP
Chain of human M3 (P20309 whole entry): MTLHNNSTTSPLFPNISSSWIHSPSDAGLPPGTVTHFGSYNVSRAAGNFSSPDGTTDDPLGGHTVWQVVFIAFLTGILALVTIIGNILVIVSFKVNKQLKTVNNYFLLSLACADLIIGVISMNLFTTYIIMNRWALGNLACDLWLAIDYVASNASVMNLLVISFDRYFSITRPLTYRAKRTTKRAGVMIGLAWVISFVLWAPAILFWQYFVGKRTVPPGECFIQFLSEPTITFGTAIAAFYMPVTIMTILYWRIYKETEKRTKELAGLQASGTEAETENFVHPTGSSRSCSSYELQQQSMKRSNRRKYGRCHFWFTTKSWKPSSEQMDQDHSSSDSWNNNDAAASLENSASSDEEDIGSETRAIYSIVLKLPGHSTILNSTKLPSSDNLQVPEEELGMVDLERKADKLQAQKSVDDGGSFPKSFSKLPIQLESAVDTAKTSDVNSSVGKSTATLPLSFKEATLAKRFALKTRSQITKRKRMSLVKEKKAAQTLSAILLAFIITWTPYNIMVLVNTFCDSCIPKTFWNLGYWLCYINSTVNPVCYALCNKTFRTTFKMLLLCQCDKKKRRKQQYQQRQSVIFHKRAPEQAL
T3 sequence (P08684 whole entry): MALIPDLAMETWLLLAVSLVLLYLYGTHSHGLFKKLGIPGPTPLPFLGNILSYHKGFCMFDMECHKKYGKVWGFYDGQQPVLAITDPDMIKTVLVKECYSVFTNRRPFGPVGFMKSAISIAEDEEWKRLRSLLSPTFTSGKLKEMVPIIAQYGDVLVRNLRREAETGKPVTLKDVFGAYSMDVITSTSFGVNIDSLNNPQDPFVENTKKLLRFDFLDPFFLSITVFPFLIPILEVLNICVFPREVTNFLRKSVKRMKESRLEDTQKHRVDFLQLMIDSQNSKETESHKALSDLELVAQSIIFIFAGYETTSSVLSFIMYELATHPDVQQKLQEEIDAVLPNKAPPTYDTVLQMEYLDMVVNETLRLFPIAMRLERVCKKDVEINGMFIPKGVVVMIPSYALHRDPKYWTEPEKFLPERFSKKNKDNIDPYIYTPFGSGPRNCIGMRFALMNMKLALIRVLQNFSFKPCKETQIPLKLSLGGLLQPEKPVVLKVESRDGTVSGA
Chain of Potassium Channel [KATP] (Q09427 whole entry): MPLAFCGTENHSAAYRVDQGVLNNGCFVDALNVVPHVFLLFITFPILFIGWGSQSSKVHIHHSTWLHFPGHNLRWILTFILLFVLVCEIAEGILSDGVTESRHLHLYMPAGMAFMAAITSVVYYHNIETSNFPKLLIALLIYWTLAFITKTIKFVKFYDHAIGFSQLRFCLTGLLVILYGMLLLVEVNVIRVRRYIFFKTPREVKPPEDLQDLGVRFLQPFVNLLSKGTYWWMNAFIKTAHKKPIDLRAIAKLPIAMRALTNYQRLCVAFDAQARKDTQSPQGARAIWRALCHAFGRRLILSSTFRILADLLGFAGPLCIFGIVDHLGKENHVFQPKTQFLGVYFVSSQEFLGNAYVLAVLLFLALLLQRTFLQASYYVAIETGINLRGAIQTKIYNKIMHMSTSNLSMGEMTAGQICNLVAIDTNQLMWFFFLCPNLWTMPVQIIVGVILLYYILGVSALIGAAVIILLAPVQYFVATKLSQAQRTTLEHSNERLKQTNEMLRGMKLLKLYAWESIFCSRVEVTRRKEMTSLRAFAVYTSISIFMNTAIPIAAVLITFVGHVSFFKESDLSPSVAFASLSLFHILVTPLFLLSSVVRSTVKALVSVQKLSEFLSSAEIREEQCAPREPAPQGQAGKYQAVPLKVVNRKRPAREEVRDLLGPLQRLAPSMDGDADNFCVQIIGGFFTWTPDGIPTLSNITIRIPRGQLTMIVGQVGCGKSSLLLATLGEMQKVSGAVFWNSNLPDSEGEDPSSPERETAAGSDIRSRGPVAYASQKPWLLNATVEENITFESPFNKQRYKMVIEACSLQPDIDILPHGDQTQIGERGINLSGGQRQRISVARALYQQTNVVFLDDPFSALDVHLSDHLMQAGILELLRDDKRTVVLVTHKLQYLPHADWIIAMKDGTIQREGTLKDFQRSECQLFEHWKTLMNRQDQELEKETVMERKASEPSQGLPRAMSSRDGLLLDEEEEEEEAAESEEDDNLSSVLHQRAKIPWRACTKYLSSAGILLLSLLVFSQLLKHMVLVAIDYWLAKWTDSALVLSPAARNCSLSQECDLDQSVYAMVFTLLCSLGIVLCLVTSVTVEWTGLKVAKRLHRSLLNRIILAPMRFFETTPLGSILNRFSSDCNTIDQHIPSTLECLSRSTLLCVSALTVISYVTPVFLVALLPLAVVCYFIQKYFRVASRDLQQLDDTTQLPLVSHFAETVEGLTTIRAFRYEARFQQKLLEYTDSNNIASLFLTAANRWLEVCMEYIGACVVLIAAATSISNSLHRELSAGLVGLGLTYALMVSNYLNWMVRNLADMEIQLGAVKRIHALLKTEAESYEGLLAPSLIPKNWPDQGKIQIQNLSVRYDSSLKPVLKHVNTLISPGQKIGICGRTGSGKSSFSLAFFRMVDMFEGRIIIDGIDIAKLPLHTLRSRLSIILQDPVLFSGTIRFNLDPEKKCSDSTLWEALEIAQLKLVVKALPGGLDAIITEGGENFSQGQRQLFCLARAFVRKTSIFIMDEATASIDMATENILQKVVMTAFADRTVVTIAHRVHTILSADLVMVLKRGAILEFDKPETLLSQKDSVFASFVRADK
Chain of Neuropeptide Y Y1 (P25929 whole entry): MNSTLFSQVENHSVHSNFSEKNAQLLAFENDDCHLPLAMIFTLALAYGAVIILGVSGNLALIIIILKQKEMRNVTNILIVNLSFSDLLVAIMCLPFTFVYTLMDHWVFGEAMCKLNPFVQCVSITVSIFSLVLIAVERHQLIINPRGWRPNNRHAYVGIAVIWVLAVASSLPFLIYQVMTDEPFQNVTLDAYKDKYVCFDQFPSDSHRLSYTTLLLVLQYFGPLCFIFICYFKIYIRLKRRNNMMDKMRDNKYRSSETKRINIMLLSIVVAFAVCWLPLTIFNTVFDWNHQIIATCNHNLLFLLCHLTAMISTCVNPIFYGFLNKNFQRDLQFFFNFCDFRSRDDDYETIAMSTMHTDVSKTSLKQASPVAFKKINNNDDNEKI
T6 sequence (P43140 whole entry): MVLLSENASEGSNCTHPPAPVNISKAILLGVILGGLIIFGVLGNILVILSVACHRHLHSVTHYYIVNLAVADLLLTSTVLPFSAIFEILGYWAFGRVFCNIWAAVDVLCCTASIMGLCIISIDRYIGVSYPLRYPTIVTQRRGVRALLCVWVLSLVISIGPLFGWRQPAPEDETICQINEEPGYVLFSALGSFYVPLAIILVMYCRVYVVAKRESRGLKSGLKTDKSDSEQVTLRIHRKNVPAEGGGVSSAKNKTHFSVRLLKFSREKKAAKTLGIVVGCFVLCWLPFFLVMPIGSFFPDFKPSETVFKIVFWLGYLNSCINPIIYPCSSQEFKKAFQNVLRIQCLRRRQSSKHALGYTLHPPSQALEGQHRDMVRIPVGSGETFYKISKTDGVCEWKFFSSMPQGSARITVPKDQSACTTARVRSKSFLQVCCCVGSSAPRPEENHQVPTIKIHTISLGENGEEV
T10 sequence (P24530 27-442): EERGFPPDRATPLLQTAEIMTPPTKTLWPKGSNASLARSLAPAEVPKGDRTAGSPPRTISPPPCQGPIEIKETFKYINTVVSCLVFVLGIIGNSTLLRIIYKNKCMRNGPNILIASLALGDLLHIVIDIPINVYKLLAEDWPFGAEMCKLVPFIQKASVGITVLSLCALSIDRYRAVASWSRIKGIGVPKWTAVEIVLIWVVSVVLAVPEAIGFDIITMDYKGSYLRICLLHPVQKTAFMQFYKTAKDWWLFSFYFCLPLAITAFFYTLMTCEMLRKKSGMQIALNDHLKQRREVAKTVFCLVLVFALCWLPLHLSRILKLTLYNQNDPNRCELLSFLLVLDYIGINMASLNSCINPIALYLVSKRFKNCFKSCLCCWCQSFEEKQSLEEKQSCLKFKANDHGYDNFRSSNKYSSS
T1 sequence (P05177 whole entry): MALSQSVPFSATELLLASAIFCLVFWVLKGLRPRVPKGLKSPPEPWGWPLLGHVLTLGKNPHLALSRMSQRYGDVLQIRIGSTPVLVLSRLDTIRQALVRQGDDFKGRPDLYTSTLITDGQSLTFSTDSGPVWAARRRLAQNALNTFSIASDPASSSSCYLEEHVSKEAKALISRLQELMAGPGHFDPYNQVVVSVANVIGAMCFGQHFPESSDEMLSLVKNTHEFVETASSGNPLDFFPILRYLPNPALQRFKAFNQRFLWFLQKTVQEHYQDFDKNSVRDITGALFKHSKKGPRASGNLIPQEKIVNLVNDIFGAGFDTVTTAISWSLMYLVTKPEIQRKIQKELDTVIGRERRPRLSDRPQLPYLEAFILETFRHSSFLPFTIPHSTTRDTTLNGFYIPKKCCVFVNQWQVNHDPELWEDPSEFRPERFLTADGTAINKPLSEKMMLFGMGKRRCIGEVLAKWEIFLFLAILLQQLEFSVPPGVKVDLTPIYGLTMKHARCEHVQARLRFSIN

Cc1nc(C)c2c(n1)sc1c(NCc3ccc(C(C)(C)O)cc3)nccc12 [22g]
human M3 %Ach Max (human M3): inactive | human M3 EC50 (human M3): inactive | human M5 %Ach Max (human M5): inactive | human M5 EC50 (human M5): inactive | fraction unbound at 6 h, 5 µM [1]: 0.024 | IC50 (CYP 1A2): 23 µM | IC50 (CYP 2C9): 17 µM | IC50 (CYP 3A4): 17 µM | Mini Ames test result (4 strains ± S9): negative | inhibition at 10 µM (Adenosine A1): 6% | inhibition at 10 µM (Adenosine A3): 22% | inhibition at 10 µM (Adrenergic α1A): 3% | inhibition at 10 µM (Adrenergic β1): 3% | inhibition at 10 µM (Bradykinin B2): -1% | % inh at 10 μM [2]: -1% | inhibition at 10 µM (Dopamine D2S): -4% | inhibition at 10 µM (Endothelin ETB): 6% | inhibition at 10 µM (GABAB1A): 6% | inhibition at 10 µM (Histamine H3): 25% | inhibition at 10 µM (Neuropeptide Y Y1): -1% | % inh at 10 μM (Phorbol Ester): -1% | inhibition at 10 µM (Potassium Channel [KATP]): 4% | % inh at 10 μM (Purinergic P2X): 0% | % inh at 10 μM (Purinergic P2Y): 9% | % inh at 10 μM (Sodium Channel, Site 2): 3% | inhibition at 10 µM (Tachykinin NK1): 8% | % inh at 10 μM (Thyroid Hormone): 1% | inhibition at 10 µM [3]: 25%
